Experimental data reported in patent US9492470B2, “Use of HMGA-targeted phosphorothioate DNA aptamers to suppress carcinogenic activity and increase sensitivity to chemotherapy agents in human cancer cells” (MIAMI UNIVERSITY, priority 2012, dated 2016).
Read-outs that look alike come from different tables or passages of the source. In the oligonucleotide strings, read from the 5' end, every base follows the letter of its sugar. An asterisk marks phosphorothioate; unmarked linkages are phosphodiester. Other units and linkages are bracketed, terminal groups are in braces. A string of capitals states the bases alone. d = 2'-deoxy (DNA)

How the values were obtained:
[1] = test system: Miapaca-2 cells; experiment: Cell growth with gemcitabine treatment after sDNA transfection, Miapaca-2; format: cell-based, Human; conditions: for IC50: Homo sapiens, MIA PaCa-2, 96 h
[2] = test system: AsPC-1 cells; experiment: Cell growth with gemcitabine treatment after sDNA transfection, AsPC-1; format: cell-based, Human; conditions: for Fold change in numbers of viable cells, TC cells with gemcitabine: AsPC-1, TC (no sDNA), 96 hours
[3] = test system: AsPC-1 cells; experiment: as above; format: cell-based, Human; conditions: for Fold change in numbers of viable cells normalized relative to TC: AsPC-1, 0.1 ug sDNA
Method: (§1) Cells were fixed after 96 hours and numbers of viable cells counted by measuring the absorbance at 570 nm.
(§2) Cells were transfected with 0.1 μg of TC-sDNA, Mix-sDNA, CG-sDNA, and AT-sDNA.

[4] = test system: HMGA1 expression levels in AsPC-1 cells; experiment: Western blot of HMGA1 expression levels in AsPC-1 nuclear extracts; format: cell-based, Human; conditions: AsPC-1, 100 nM gemcitabine, 48 hours
Method: Cytoplasmic and nuclear protein extracts were prepared from pancreatic cancer cells using NE-PER extraction kit (Thermo Scientific, Rockford, Ill.). Protein concentrations were determined using a bicinchoninic acid assay with bovine serum albumin as a standard. Nuclear proteins that contained 25 or 15 μg total protein were separated by SDS-PAGE with a 4%-20% Criterion gradient gel (Bio-Rad Laboratories, Inc., Hercules, Calif.). The proteins were transferred to immuno-blot PVDF membrane (0.2 μm) (Bio-Rad Laboratories, Inc., Hercules, Calif.) and blocked in 5% dry milk in PBS supplemented with 0.2% Tween 20 (PBST). The PVDF membranes were then probed with 1:1000 dilution of rabbit anti-HMGA1 antibody (Santa Cruz Biotechnology Inc, Santa Cruz, Calif.) and 1:100 dilution of rabbit anti-HMGA2 antibody (Abcam plc, Cambridge, Mass.), in 3% BSA in PBST at 4° C. overnight. After three washes with PBST, the membrane was blotted with secondary antibody, ant-rabbit IgG-HRP (cell signaling) 1:5000 dilution in 1% dry milk in PBST at room temperature for 1 hour. An enhanced chemiluminescence detection (ECL, GE Healthcare Life Sciences, Piscataway, N.J.) system was used to detect target proteins. To ensure equal loading of the proteins between groups, membranes were re-probed with anti-TATA binding protein antibody (Abcam plc, Cambridge, Mass.). […] The control was nuclear extract from untreated cells. Triplicates of each sample were run on the gel and analyzed with the Alpha Imager. The relative HMGA1 densities were obtained by dividing HMGA 1 density by TBP density. […] TATA binding protein (TBP) was used as a loading control. […] HMGA1 expression levels were examined after transfection with CG-sDNA or AT-sDNA to determine if the transfection procedure affected HMGA1 expression levels. The AT-sDNA used for transfection contained an 18 adenine/thymine stretch enabling HMGA1 to bind the DNA with all three AT-hooks. As a negative control, a non-HMGA1-targeted sDNA containing an equal length of DNA but with no AT-stretches, i.e. CG-sDNA, was used. […]

[5] = test system: Miapaca-2 cells; experiment: Cell growth with gemcitabine treatment after sDNA transfection, Miapaca-2; format: cell-based, Human; conditions: 96 hours; for Fold change in numbers of viable cells normalized relative to TC: Miapaca-2, 0.1 ug sDNA
Method: as §1, §2

[6] = test system: AsPC-1 cells; conditions: for cells dead compared to UT: versus untransfected (UT) cells
Method: AsPC-1 cells were grown in Roswell Park Memorial Institute medium supplemented with 10% FBS, and 1% penicillin-streptomycin.
Transfections using sDNA at concentrations of 0.1 and 0.25 μg per well were conducted with 5×10^4 and 1×10^5 Miapaca-2 and AsPC-1 cells, respectively, in 24-well plates and all data were collected in quadruplicate. Miapaca-2 and AsPC-1 cells were transfected with sDNA using Lipofectamine 2000 (Invitrogen,™ Life Technologies Corporation, Carlsbad, Calif.) according to the manufacturer's protocol.
Briefly, AsPC-1 cells grown in 10% FBS containing RPIM medium were trypsinized using a trypsin-EDTA solution commercially available from the Sigma-Aldrich, and used to seed fresh media in a 24-well plate with 10^5 cells per well.
After 48 hours, the cells were transfected with the selected sDNA using Lipofectamine 2000 (Invitrogen,™ Life Technologies Corporation, Carlsbad, Calif.) according to the manufacturer's protocol. […] The cells were then fixed with 4% paraformaldehyde in PBS for 20 minutes and stained in 0.1% crystal violet stain (Sigma-Aldrich) for 30 minutes. The cells were washed under running tap water, air dried, and extracted with 0.2% Triton™ X-100 for 30 minutes. […] The absorbance of the Triton X-100 was measured at 570 nm using a HTS microplate reader. All results were analyzed for statistical significance using a student's unpaired t-test.

[7] = test system: Miapaca-2 cells; experiment: Cell viability (crystal violet) after sDNA transfection, Miapaca-2; format: cell-based, Human; conditions: for cells dead compared to UT: versus untransfected (UT) cells
Method: The absorbance was measured at 570 nm in quadruplicate. All data from control cells were combined and averaged.

[8] = AsPC-1, 0.1 μg sDNA, 96 h after transfection
[9] = Miapaca-2, 0.1 μg sDNA, 96 h after transfection

With `Nc1ccn([C@@H]2O[C@H](CO)[C@@H](O)C2(F)F)c(=O)n1` [Gemcitabine, gemcitabine] the IC50 ([1]; read-out: Gemcitabine IC50 in transfection control (TC) cells, Miapaca-2, TC (no sDNA), 0.1 μg column, 96 hours) was 0.0119 ± 0.0012 µM, the IC50 ([1]; read-out: Gemcitabine IC50 in transfection control (TC) cells, Miapaca-2, TC (no sDNA), 0.25 μg column, 96 hours) was 0.0215 ± 0.0006 µM and the “change in cell viability, TC cells” value ([1]; Miapaca-2, TC (no sDNA), 1 nM gemcitabine, 96 hours) was “no significant change”. For the same molecule, the “cells surviving, TC cells” value ([1]; Miapaca-2, TC (no sDNA), 10 nM gemcitabine, 96 hours) was 77.1%, the “Fold change in numbers of viable cells, TC cells with gemcitabine” value (from here on “Fold change in numbers … with gemcitabine”) ([1]; Miapaca-2, TC (no sDNA), Gemcitabine 1 nM, 96 hours) was 1.00 fold and the “Fold change in numbers … with gemcitabine” value ([1]; Miapaca-2, TC (no sDNA), Gemcitabine 10 nM, 96 hours) was −1.30 fold. The “Fold change in numbers … with gemcitabine” value ([1]; Miapaca-2, TC (no sDNA), Gemcitabine 100 nM, 96 hours) was −3.59 fold, the “Fold change in numbers … with gemcitabine” value ([1]; Miapaca-2, TC (no sDNA), Gemcitabine 1000 nM, 96 hours) was −3.47 fold and the “Fold change in numbers … with gemcitabine” value ([2]; Gemcitabine 10 nM) was −1.02 fold. For the same molecule, the “Fold change in numbers … with gemcitabine” value ([2]; Gemcitabine 100 nM) was −1.36 fold, the “Fold change in numbers … with gemcitabine” value ([2]; Gemcitabine 1000 nM) was −1.52 fold and the IC50 ([2]; Homo sapiens, ASPC1, 96 h, read-out: Gemcitabine IC50 in transfection control (TC) cells, AsPC-1, TC (no sDNA), 0.25 μg column, 96 hours) was 0.0248 µM. The “Fold change in numbers … with gemcitabine” value ([3]; AsPC-1, TC (no sDNA), Gemcitabine 30 nM, 96 hours) was −1.04 fold, the IC50 ([3]; Homo sapiens, ASPC1, 96 h, read-out: Gemcitabine IC50 in transfection control (TC) cells, AsPC-1, TC (no sDNA), 0.1 μg column, 96 hours) was 0.028 µM and the “change in HMGA1 expression levels after gemcitabine” value [4] was “no change”. The “Fold change in numbers … with gemcitabine” value ([5]; Miapaca-2, TC (no sDNA), Gemcitabine 30 nM) was −3.21 fold.

“Mix-sDNA: random phosphorothioate DNA (SEQ ID NO: 13), control lacking a HMGA-specific binding sequence (DNA dC*dC*dC*dA*dC*dT*dG*dC*dA*dG*dT*dC*dG*dG*dA*dC*dT*dC*dA*dC*dT*dC*dG*dC)” was tested, and the “Fold change in numbers of viable cells normalized relative to TC” value ([1]; Miapaca-2, 0.1 ug sDNA, Gemcitabine 1 nM, 96 hours) was 1.12 fold, the “cells dead compared to UT” value ([6]; AsPC-1, 0.1 ug sDNA, 48 hrs) was 28.0% and the “Fold change in numbers of viable cells between TC and sDNA transfected cells (in parentheses)” value [6, 8] was “(−1.14) fold”. For the same molecule, the “Fold change in numbers of viable cells between UT and transfected cells” value [6, 8] was −1.24 fold, the “cells dead compared to UT” value ([6]; AsPC-1, 0.1 ug sDNA, 96 hrs) was 19.4% and the “difference in cell viability between TC cells and sDNA transfected cells” value ([6]; AsPC-1, 0.1 ug sDNA, both 48 and 96 hours) was “no significant differences”. For the same molecule, the “Fold change in numbers of viable cells normalized relative to TC” value ([3]; Gemcitabine 0 nM, 96 hours) was −1.14 fold, the “Fold change in numbers of viable cells normalized relative to TC” value ([3]; Gemcitabine 1 nM, 96 hours) was −1.06 fold and the “Fold change in numbers of viable cells normalized relative to TC” value ([3]; Gemcitabine 10 nM, 96 hours) was −1.16 fold. The “Fold change in numbers of viable cells normalized relative to TC” value ([3]; Gemcitabine 30 nM, 96 hours) was −1.17 fold, the “Fold change in numbers of viable cells normalized relative to TC” value ([3]; Gemcitabine 100 nM, 96 hours) was −1.36 fold and the “Fold change in numbers of viable cells normalized relative to TC” value ([3]; Gemcitabine 1000 nM, 96 hours) was −1.59 fold. For the same molecule, the “cells dead compared to UT” value ([7]; Miapaca-2, 0.1 ug sDNA, 48 hrs) was 30.4%, the “Fold change in numbers of viable cells between TC and sDNA transfected cells (in parentheses)” value [7, 9] was “(1.07) fold” and the “Fold change in numbers of viable cells between UT and transfected cells” value [7, 9] was −1.45 fold. The “cells dead compared to UT” value ([7]; Miapaca-2, 0.1 ug sDNA, 96 hrs) was 33.3%, the “difference in cell viability between TC cells and sDNA transfected cells” value ([7]; Miapaca-2, 0.1 ug sDNA, both 48 and 96 hours) was “no significant differences” and the “cells dead / change in cell viability” value ([5]; Miapaca-2, 0.1 μg sDNA, 1 nM gemcitabine) was “no significant change”. The cells surviving ([5]; Miapaca-2, 0.1 μg sDNA, 10 nM gemcitabine, normalized to 0 nM gemcitabine) was 94.5%, the “Fold change in numbers of viable cells normalized relative to TC” value ([5]; Gemcitabine 0 nM) was 1.07 fold and the “Fold change in numbers of viable cells normalized relative to TC” value ([5]; Gemcitabine 10 nM) was 1.01 fold. For the same molecule, the “Fold change in numbers of viable cells normalized relative to TC” value ([5]; Gemcitabine 30 nM) was −2.65 fold, the “Fold change in numbers of viable cells normalized relative to TC” value ([5]; Gemcitabine 100 nM) was −4.41 fold and the “Fold change in numbers of viable cells normalized relative to TC” value ([5]; Gemcitabine 1000 nM) was −4.48 fold.
